Reference: patent US9078446B2, “Use of N-(tetrazol-4-yl)- or N-(triazol-3-yl)arylcarboxamides or their salts for controlling unwanted plants in areas of transgenic crop plants being tolerant to HPPD inhibitor herbicides” (BAYER INTELLECTUAL PROPERTY GMBH, priority 2011, dated 2015)

How the values were obtained:
Assay type in all cases: in vivo
[1] = tested on: cotton plants expressing FMP 27 and FMP 37; assay: Tolerance to HPPD inhibitors of cotton plants expressing tolerant HPPD enzymes; details: T1 cotton plants; one week after application
Procedure, shortened: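 Transgenic cotton expressed Blepharisma japonicum (FMP37) or Kordia algicida (FMP27) HPPD under CaMV35S with an N-terminal chloroplast transit peptide. T1 plants came from tembotrione-tolerant T0 events, were grown in single pots, and were sprayed at least 4 weeks later with N-(tetrazol-4-yl)- or N-(triazol-3-yl)arylcarboxamides.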

[2] = tested on: transgenic tobacco plants expressing tolerant HPPD enzymes; assay: Tolerance of tobacco plants expressing tolerant HPPD enzymes (all transgenes)
Procedure, shortened: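 Tobacco transformed via pBin19 with the HPPD gene under CaMV35S, fused to an N-terminal chloroplast transit peptide. T1 plants, potted at 3 weeks and grown 2 more weeks, sprayed with N-(tetrazol-4-yl)/N-(triazol-3-yl)arylcarboxamides (g AI/ha) on 8–10 plants from 1–3 events per transgene. Damage scored 0 (none) to 3 (very strong), versus non-transformed plants.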

[3] = tested on: non-transformed tobacco plants (Wt); assay: Symptoms due to herbicide application on tobacco plants (damage classes 0-3); details: 25 g Al/ha, one week after application
Procedure, shortened: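 Tobacco plants grown two weeks in single pots after transfer, then sprayed with herbicides at rates in g active ingredient/ha, 8 to 10 plants per group. Symptoms scored on a 0–3 scale: 0 none, 1 light and transient, 2 strong, 3 very strong damage.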

[4] = tested on: soybean plants expressing Pseudomonas fluorescens G336W mutant, FMP 27 and FMP 37; assay: Tolerance to HPPD inhibitors of soybean plants expressing tolerant HPPD enzymes; details: T1 soybean plants; one week after application
Procedure, shortened: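 T1 soybean lines carry chloroplast-targeted HPPD genes from Blepharisma japonicum or Kordia algicida under the CaMV35S promoter, with T0 events selected for tembotrione tolerance. T1 seedlings are raised singly in pots under standard conditions. Plants are sprayed two weeks later with N-(tetrazol-4-yl)- or N-(triazol-3-yl)arylcarboxamides.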

With Cc1c(C(=O)Nc2nnnn2C)ccc(C(F)(F)F)c1S(C)(=O)=O [Compound 4-137] the “tolerance of transgenic plants compared to the wild-type cotton plants” value [1] was “superior tolerance”, the “tolerance of the transgenic tobacco plants (symptoms due to application of the herbicide)” value ([2]; T1 plants sprayed, evaluated one week after application) was “good tolerance” and the “sensitivity of transgenic tobacco plants compared to wild type (wt) plants” value ([2]; all tested independent lines, agronomically relevant dose) was “less sensitive”. For the same compound, the “number of plants with Damage 0 (No damage)” value [3] was 0, the “number of plants with Damage 1 (Light and transient damage)” value [3] was 0 and the “number of plants with Damage 2 (Strong damage)” value [3] was 0. The “number of plants with Damage 3 (Very strong damage)” value [3] was 10 and the “tolerance of transgenic plants compared to the wild-type soybean plants” value [4] was “superior tolerance”.
